Source: patent US5624941A, “Pyrazole derivatives, method of preparing them and pharmaceutical compositions in which they are present” (Sanofi, priority 1992, dated 1997)

What was measured:
rats = assay: test of the central memory in rats (Perio et al.); assay type: in vivo; conditions: subcutaneous administration
cannabinoid receptors = target: T1, cannabinoid receptors (Mus musculus, UniProt P47746); assay: antagonism of hypothermia induced by WIN 55 212-2 in mice; assay type: in vivo
T1 construct: from tissue; host or cells: whole living mouse (in vivo hypothermia test)
T1 sequence (P47746 whole entry): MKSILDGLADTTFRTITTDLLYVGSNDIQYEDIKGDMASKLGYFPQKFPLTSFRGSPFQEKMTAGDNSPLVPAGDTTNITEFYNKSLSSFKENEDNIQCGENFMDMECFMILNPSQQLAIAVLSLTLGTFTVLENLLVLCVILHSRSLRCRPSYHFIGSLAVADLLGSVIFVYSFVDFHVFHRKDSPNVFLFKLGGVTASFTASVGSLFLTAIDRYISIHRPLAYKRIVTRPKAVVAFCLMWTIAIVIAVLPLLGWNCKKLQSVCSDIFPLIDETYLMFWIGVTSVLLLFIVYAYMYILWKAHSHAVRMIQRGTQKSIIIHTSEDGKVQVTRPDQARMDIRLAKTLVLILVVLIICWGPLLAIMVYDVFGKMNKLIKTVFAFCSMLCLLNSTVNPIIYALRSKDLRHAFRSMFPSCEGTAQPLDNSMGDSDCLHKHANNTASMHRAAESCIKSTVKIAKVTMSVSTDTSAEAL

[1] = penetration of the blood-brain barrier / central nervous system; assay type: in vivo

Cc1c(C(=O)NN2CCCCC2)nn(-c2ccc(Cl)cc2Cl)c1-c1ccc(Cl)cc1 [N-piperidino-5-(4-chlorophenyl)-1-(2,4-dichlorophenyl)-4-methyl-pyrazole-3-carboxamide]
toxicity (toxicity): compatible with its use as a psychotropic drug
memory capacities of rats in the test of the central memory (rats): improves the memory capacities of rats
duration of action in the hypothermia test (cannabinoid receptors; mice, after oral administration of 3 mg/kg): 8 to 10 h
ED50, antagonism of WIN 55 212-2 induced hypothermia (cannabinoid receptors; mice, i.p.): 0.3 mg/kg
ED50, antagonism of WIN 55 212-2 induced hypothermia (cannabinoid receptors; mice, per os): 0.4 mg/kg
activity upon oral administration (cannabinoid receptors; oral): active upon oral administration
penetration in the central nervous system ([1]; confirmed by antagonism of agonist-induced hypothermia): good penetration
penetration of the blood-brain barrier ([1]; in vivo): penetrates the blood-brain barrier
